# Columns and labels:
# [1] = system: primary human melanocytes; experiment: Melanin content assay in primary human melanocytes; format: cell-based; conditions: for inhibition at 1 µM / inhibition at 10 µM: Homo sapiens, Melanocyte, 72 hrs treatment, corrected for cell numbers, read-out: Average % inhibition of cellular melanin; for reduction of melanin content (in words): primary human melanocytes
# Description: (i) Cell Cultures: • Neonatal foreskin primary human melanocytes were procured from Life Technologies, USA. Cells were grown in Medium 254 supplemented with human melanocyte growth supplement-2 and maintained at 37° C. in a humidified incubator with 5% CO2 atmosphere. The maintenance and sub culturing of cells were carried out as per the manufacturer's instructions. Cells between passages 3-6 were used for experimentation.
# (ii) Active Addition: • Cells were seeded at a density of 5×10^4/well in a 24 well plate in Melanocyte Growth Media (MGM) and incubated for 24 hrs at 37° C./5% CO2. Actives were added to cells along with relevant controls. 72 hrs post active treatment, cell viability was determined using the Calcein method followed by measurement of cellular melanin content (described in below sections).
# (iii) Cell Viability Assay: • Briefly, spent media was removed and cells washed once with 0.2 ml of 1× PBS-Ca—Mg solution. Fresh 1 μM calcein-AM in PBS buffer was added to each well. Plates were incubated for 30 min. at 37° C. in a CO2 incubator. Calcein fluorescence was then measured (excitation at 490 nm and emission at 520 nm) in TECAN M1000 plate reader.
# (iv) Melanin Content Assay: • After Calcein measurements, cultures were rinsed with PBS (1×) and lysed for 1 hour at 60° C. in a shaker incubator using NaOH/DMSO mix. Melanin content was measured in a Tecan plate reader (405 nm filter), corrected for cell numbers and represented as % inhibition.
# Tyrosinase enzyme = molecular target: T1, Tyrosinase enzyme (Homo sapiens, UniProt P14679); experiment: In vitro human tyrosinase activity assay (melanocytic lysate); format: biochemical
# T1 construct: Primary human melanocytic lysate was used as a source of Tyrosinase enzyme; endogenous in cells; host or cells: primary human melanocytes (lysate)
# T1 sequence (P14679 19-529): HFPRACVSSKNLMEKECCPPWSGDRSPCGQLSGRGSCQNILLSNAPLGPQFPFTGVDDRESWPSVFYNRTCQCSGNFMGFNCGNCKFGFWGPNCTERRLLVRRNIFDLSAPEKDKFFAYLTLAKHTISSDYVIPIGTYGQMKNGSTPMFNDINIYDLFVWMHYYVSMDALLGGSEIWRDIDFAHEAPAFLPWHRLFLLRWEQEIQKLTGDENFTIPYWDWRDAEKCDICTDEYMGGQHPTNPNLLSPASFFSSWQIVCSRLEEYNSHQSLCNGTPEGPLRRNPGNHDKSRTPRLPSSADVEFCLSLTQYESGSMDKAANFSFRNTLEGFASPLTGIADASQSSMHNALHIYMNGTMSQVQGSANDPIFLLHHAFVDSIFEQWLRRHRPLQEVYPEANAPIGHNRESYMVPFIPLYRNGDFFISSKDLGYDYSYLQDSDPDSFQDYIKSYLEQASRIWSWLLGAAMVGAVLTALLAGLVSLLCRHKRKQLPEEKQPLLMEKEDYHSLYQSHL
# Description: (v) In Vitro Human Tyrosinase Activity Assay: • Primary human melanocytic lysate was used as a source of Tyrosinase enzyme. Human melanocytic lysate and test actives (at different concentrations) were incubated together for 15 mins, prior to addition of Tyrosine/DOPA substrate mix. Assay plate was then incubated at 37° C. for ˜14-16 hrs. Optical Density was measured at 405 nm and % inhibition of Tyrosinase activity calculated. Results
SMILES,inhibition at 1 µM [1],inhibition at 10 µM [1],reduction of melanin content (in words) ([1]; at 1 μM),reduction of melanin content (in words) ([1]; at 10 μM),reduction of melanin content (in words) ([1]; concentration not specified),direct modulation / inhibition of Tyrosinase enzyme activity (in words) (Tyrosinase enzyme),inhibition at 1 µM (Tyrosinase enzyme; 1 μM),inhibition at 5 µM (Tyrosinase enzyme; 5 μM),inhibition at 10 µM (Tyrosinase enzyme; 10 μM),inhibition at 50 µM (Tyrosinase enzyme; 50 μM)
"CNC(=O)[C@H](Cc1c[nH]c2ccccc12)NC(=O)[C@@H](CC(=O)NO)CC(C)C [Galardin, (R)-N4-Hydroxy-N1-[(S)-2-(1H-indol-3-yl)-1-methylcarbamoyl-ethyl]-2-isobutyl-succinamide]",7%,17%,no reduction,modest reduction,,,,,,
"CCCCCCc1ccc(O)cc1O [4-HR, 4-Hexylresorcinol]",11%,38%,,,significant reduction in melanin content,through direct modulation of Tyrosinase enzyme activity,28%,55%,78%,78%
